Data as given in patent publication US7371766B2, “Curcumin analogs with anti-tumor and anti-angiogenic properties” (Emory University, priority 1999, dated 2008).
Marks after values point to notes of the source that are not given here.

Test system: Vascular Endothelial Growth Factor (VEGF) production by human melanoma cell line RPMI-7951
Experiment: VEGF ELISA, RPMI-7951
Settings: RPMI-7951; for VEGF ELISA: DMSO control 3713
[1] = 5 μM, DMSO control 4197 (EF-25: 1045)

O=C1C(=Cc2ccccc2O)COCC1=Cc1ccccc1O [EF25, 3,5-Bis(2-hyrdoxybenzylidene)tetrahydro4-H-pyran4-one]
VEGF (5 μM, DMSO = 100): 21% | VEGF [1]: 216* pg/ml

3,5-Bis(2-hydroxybenzylidene)-sulfone [EF11]
VEGF (20 μM, DMSO = 100): 51%

C(=C\c1ccccc1)/S/C=C/c1ccccc1 [EF15]
VEGF (5 μM, DMSO = 100): 28% | VEGF ELISA (5 μM): 2361 pg/ml/well | VEGF [1]: 1187 pg/mL | VEGF (20 μM, DMSO = 100): 22% | VEGF ELISA (20 μM): 894 pg/ml/well | VEGF (20 μM, DMSO control 4197): 938 pg/mL
